Numbered stars: 1 amine (or outer) side, 2 acyl side, 3 side chain; on linkers, the order of the positions; unused ones are H or OH. Square brackets hold non-standard residues; d marks the D form. Peptide text beside a SMILES is read from it. Ala(1H-tetrazol-5-yl) = N[C@@H](Cc1nnn[nH]1)C(=O)O; X1 = O=C([C@H](CCc1nnn[nH]1)N[*:1])[*:2]; Nle = CCCC[C@H](N)C(=O)O
B1: Peptide 34 (peptide)
peptide: Ac-HS[Ala(1H-tetrazol-5-yl)]AIFT[Ala(1H-tetrazol-5-yl)]SYSRYRKAAAVKKYLAAVL-NH2
SMILES: CC[C@H](C)[C@H](NC(=O)[C@H](C)NC(=O)[C@H](Cc1nnn[nH]1)NC(=O)[C@H](CO)NC(=O)[C@H](Cc1c[nH]cn1)NC(C)=O)C(=O)N[C@@H](Cc1ccccc1)C(=O)N[C@H](C(=O)N[C@@H](Cc1nnn[nH]1)C(=O)N[C@@H](CO)C(=O)N[C@@H](Cc1ccc(O)cc1)C(=O)N[C@@H](CO)C(=O)N[C@@H](CCCNC(=N)N)C(=O)N[C@@H](Cc1ccc(O)cc1)C(=O)N[C@@H](CCCNC(=N)N)C(=O)N[C@@H](CCCCN)C(=O)N[C@@H](C)C(=O)N[C@@H](C)C(=O)N[C@@H](C)C(=O)N[C@H](C(=O)N[C@@H](CCCCN)C(=O)N[C@@H](CCCCN)C(=O)N[C@@H](Cc1ccc(O)cc1)C(=O)N[C@@H](CC(C)C)C(=O)N[C@@H](C)C(=O)N[C@@H](C)C(=O)N[C@H](C(=O)N[C@@H](CC(C)C)C(N)=O)C(C)C)C(C)C)[C@@H](C)O

Legend:
PAC1R = molecular target: T1, PAC1R (Homo sapiens, UniProt P41586); assay: cAMP assay in PAC1R high-expressing CHO-K1 cell line; assay type: cell-based; details: cAMP inducing effect, CHO-K1 PAC1R high-expressing cells
T1 construct: host or cells: CHO-K1
T1 sequence (P41586 21-468): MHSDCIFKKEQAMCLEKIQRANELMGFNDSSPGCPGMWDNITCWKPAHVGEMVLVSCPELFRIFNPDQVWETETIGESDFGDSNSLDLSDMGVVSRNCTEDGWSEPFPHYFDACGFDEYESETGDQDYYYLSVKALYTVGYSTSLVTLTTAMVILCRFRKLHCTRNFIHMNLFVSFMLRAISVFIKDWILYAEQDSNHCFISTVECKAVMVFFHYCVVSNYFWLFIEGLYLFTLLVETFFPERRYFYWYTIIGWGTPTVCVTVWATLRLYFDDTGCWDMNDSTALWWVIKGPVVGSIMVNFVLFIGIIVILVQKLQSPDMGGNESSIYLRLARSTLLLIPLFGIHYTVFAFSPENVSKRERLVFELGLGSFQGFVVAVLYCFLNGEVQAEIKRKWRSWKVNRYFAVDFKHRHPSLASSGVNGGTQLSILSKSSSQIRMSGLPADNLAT
Method: (§1) The cells were cultured for 18 to 24 hours at 37° C. in a 5% C02 incubator, adhering the cells to the plate. […] A 5-fold dilution series was then prepared with the same Cell assay buffer and used in an assay. The cAMP assay was carried out using a Hit Hunter cAMP Assay for Biologics kit (product of DiscoveRx, Cat. No. 90-0075LM25), according to the included kit instructions. […] Next, the culture medium was removed from the CHO-K1 cell culture plate, washing was performed with PBS, and the peptide-cAMP antibody liquid mixtures were added to the cells and incubated for 30 minutes under a 5% CO2 atmosphere at 37° C. A working detection solution was then added and the culture plate was shielded from light with aluminum foil and incubated at 25° C. for 1 hour. After incubation, Solution A was added and the culture plate was shielded from light with aluminum foil and then incubated at 25° C. for 3 hours. […] The obtained value for the Relative Luminescence Unit (RLU) was analyzed with GraphPad Prism Ver 6.05 (product of Graph Pad) and the EC50 value was calculated for each peptide. […] FIG. 2 and Table 11. […] A 5-fold dilution series was then prepared with the same Cell assay buffer and used in an assay. […] A 5-fold dilution series was then prepared with the same Cell assay buffer and used in an assay.

[1] = Peptide stability test, Tris buffer (pH 7.0), 60° C. storage, HPLC remaining rate; assay type: physicochemical; details: Table 7; 100 μM in Tris buffer pH 7.0
In short: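 Peptides at 100 μM in Tris buffer (pH 7.0) stored 1 or 2 weeks at 60° C.; unstored sample kept at −30° C. as initial reference. Remaining peptide quantified by reversed-phase HPLC at 220 nm (formic acid/acetonitrile gradient, 40° C. column), as water-corrected remaining rate.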

VPAC1R = molecular target: T2, VPAC1R (Homo sapiens, UniProt P32241); assay: cAMP assay in VPAC1R high-expressing CHO-K1 cell line; assay type: cell-based; details: Table 12; cAMP inducing effect, CHO-K1 VPAC1R high-expressing cells
T2 construct: host or cells: CHO-K1
T2 sequence (P32241 31-457): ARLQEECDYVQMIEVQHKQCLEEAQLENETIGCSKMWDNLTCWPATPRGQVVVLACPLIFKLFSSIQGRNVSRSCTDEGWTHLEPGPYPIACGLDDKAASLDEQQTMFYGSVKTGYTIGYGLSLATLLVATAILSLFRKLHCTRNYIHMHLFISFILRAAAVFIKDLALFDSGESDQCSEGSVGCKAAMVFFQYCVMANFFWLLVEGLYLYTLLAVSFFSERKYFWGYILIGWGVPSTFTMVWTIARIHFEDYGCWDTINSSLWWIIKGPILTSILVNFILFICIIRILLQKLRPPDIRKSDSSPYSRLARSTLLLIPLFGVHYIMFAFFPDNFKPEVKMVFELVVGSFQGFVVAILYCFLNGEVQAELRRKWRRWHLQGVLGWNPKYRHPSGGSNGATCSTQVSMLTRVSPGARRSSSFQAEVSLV
Method: as §1

VPAC1 receptor = molecular target: T3, VPAC1 receptor (UniProt P32241 31-457, limits assumed); assay: cell-based or functional assay
T3 sequence (looked up): T2 sequence (P32241 31-457)

PAC1 receptor = molecular target: T4, PAC1 receptor (UniProt P41586 21-468, limits assumed); assay: cell-based or functional assay
T4 sequence (looked up): T1 sequence (P41586 21-468)

Row | remaining rate after correction for water, 60° C., 1 week preservation [1] [%] | remaining rate after correction for water, 60° C., 2 weeks preservation [1] [%] | EC50 (VPAC1R) [nM] | other results | Molecule
1 | – | – | – | EC50 (PAC1R; Table 11): 0.079 nM | CCCC[C@H](NC(=O)[C@H](CCC(N)=O)NC(=O)[C@H](CCCCN)NC(=O)[C@H](CCCNC(=N)N)NC(=O)[C@H](Cc1ccc(O)cc1)NC(=O)[C@H](CCCNC(=N)N)NC(=O)[C@H](CO)NC(=O)[C@H](Cc1ccc(O)cc1)NC(=O)[C@H](CO)NC(=O)[C@H](Cc1nnn[nH]1)NC(=O)[C@@H](NC(=O)[C@H](Cc1ccccc1)NC(=O)[C@@H](NC(=O)CNC(=O)[C@H](Cc1nnn[nH]1)NC(=O)[C@H](CO)NC(=O)[C@@H](N)Cc1c[nH]cn1)[C@@H](C)CC)[C@@H](C)O)C(=O)N[C@@H](C)C(=O)N[C@H](C(=O)N[C@@H](CCCCN)C(=O)N[C@@H](CCCCN)C(=O)N[C@@H](Cc1ccc(O)cc1)C(=O)N[C@@H](CC(C)C)C(=O)N[C@@H](C)C(=O)N[C@@H](C)C(=O)N[C@H](C(=O)N[C@@H](CC(C)C)C(N)=O)C(C)C)C(C)C [Peptide 6] (H-HS[Ala(1H-tetrazol-5-yl)]GIFT[Ala(1H-tetrazol-5-yl)]SYSRYRKQ[Nle]AVKKYLAAVL-NH2)
2 | 97.3 | 94.9 | – | EC50 (PAC1R; Table 12): 0.061 nM | CC[C@H](C)[C@H](NC(=O)CNC(=O)[C@H](Cc1nnn[nH]1)NC(=O)[C@H](CO)NC(=O)[C@H](Cc1c[nH]cn1)NC(C)=O)C(=O)N[C@@H](Cc1ccccc1)C(=O)N[C@H](C(=O)N[C@@H](Cc1nnn[nH]1)C(=O)N[C@@H](C)C(=O)N[C@@H](Cc1ccc(O)cc1)C(=O)N[C@@H](CO)C(=O)N[C@@H](CCCNC(=N)N)C(=O)N[C@@H](Cc1ccc(O)cc1)C(=O)N[C@@H](CCCNC(=N)N)C(=O)N[C@@H](CCCCN)C(=O)N[C@@H](CCC(N)=O)C(=O)N[C@@H](CC(C)C)C(=O)N[C@@H](C)C(=O)N[C@H](C(=O)N[C@@H](CCCCN)C(=O)N[C@@H](CCCCN)C(=O)N[C@@H](Cc1ccc(O)cc1)C(=O)N[C@@H](CC(C)C)C(=O)N[C@@H](C)C(=O)N[C@@H](C)C(=O)N[C@H](C(=O)N[C@@H](CC(C)C)C(N)=O)C(C)C)C(C)C)[C@@H](C)O [Peptide 15] (Ac-HS[Ala(1H-tetrazol-5-yl)]GIFT[Ala(1H-tetrazol-5-yl)]AYSRYRKQLAVKKYLAAVL-NH2)
3 | 97.4 | 95.4 | 0.072 | – | CC[C@H](C)[C@H](NC(=O)CNC(=O)[C@H](Cc1nnn[nH]1)NC(=O)[C@H](CO)NC(=O)[C@H](Cc1c[nH]cn1)NC(C)=O)C(=O)N[C@@H](Cc1ccccc1)C(=O)N[C@H](C(=O)N[C@@H](Cc1nnn[nH]1)C(=O)N[C@@H](CO)C(=O)N[C@@H](Cc1ccc(O)cc1)C(=O)N[C@@H](CO)C(=O)N[C@@H](CCCNC(=N)N)C(=O)N[C@@H](Cc1ccc(O)cc1)C(=O)N[C@@H](CCCNC(=N)N)C(=O)N[C@@H](CCCCN)C(=O)N[C@@H](CCc1nnn[nH]1)C(=O)N[C@@H](CC(C)C)C(=O)N[C@@H](C)C(=O)N[C@H](C(=O)N[C@@H](CCCCN)C(=O)N[C@@H](CCCCN)C(=O)N[C@@H](Cc1ccc(O)cc1)C(=O)N[C@@H](CC(C)C)C(=O)N[C@@H](C)C(=O)N[C@@H](C)C(=O)N[C@H](C(=O)N[C@@H](CC(C)C)C(N)=O)C(C)C)C(C)C)[C@@H](C)O [Peptide 13] (Ac-HS[Ala(1H-tetrazol-5-yl)]GIFT[Ala(1H-tetrazol-5-yl)]SYSRYRK[X1]LAVKKYLAAVL-NH2)
4 | 95.8 | 92.7 | 0.044 | – | CC[C@H](C)[C@H](NC(=O)CNC(=O)[C@H](Cc1nnn[nH]1)NC(=O)[C@H](CO)NC(=O)[C@H](Cc1c[nH]cn1)NC(C)=O)C(=O)N[C@@H](Cc1ccccc1)C(=O)N[C@H](C(=O)N[C@@H](Cc1nnn[nH]1)C(=O)N[C@@H](CO)C(=O)N[C@@H](Cc1ccc(O)cc1)C(=O)N[C@@H](CO)C(=O)N[C@@H](CCCNC(=N)N)C(=O)N[C@@H](Cc1ccc(O)cc1)C(=O)N[C@@H](CCCNC(=N)N)C(=O)N[C@@H](CCCCN)C(=O)N[C@@H](CCC(N)=O)C(=O)N[C@@H](CC(C)C)C(=O)N[C@@H](C)C(=O)N[C@@H](C)C(=O)N[C@@H](CCCCN)C(=O)N[C@@H](CCCCN)C(=O)N[C@@H](Cc1ccc(O)cc1)C(=O)N[C@@H](CC(C)C)C(=O)N[C@@H](C)C(=O)N[C@@H](C)C(=O)N[C@H](C(=O)N[C@@H](CC(C)C)C(N)=O)C(C)C)[C@@H](C)O [Peptide 19] (Ac-HS[Ala(1H-tetrazol-5-yl)]GIFT[Ala(1H-tetrazol-5-yl)]SYSRYRKQLAAKKYLAAVL-NH2)
5 | – | – | – | EC50 (VPAC1R), cAMP inducing effect (VPAC1 receptor): 0.089 nM; EC50 (PAC1R), cAMP inducing effect (PAC1 receptor): 0.21 nM | B1
